Laboratory results taken from patent US7084301B2 (Ranbaxy Laboratories Limited, priority 2003, dated 2006).

Molecular target: T1, rat α1D-adrenoceptor (aorta) (Rattus norvegicus, UniProt P23944)
T1 sequence (P23944 1-561): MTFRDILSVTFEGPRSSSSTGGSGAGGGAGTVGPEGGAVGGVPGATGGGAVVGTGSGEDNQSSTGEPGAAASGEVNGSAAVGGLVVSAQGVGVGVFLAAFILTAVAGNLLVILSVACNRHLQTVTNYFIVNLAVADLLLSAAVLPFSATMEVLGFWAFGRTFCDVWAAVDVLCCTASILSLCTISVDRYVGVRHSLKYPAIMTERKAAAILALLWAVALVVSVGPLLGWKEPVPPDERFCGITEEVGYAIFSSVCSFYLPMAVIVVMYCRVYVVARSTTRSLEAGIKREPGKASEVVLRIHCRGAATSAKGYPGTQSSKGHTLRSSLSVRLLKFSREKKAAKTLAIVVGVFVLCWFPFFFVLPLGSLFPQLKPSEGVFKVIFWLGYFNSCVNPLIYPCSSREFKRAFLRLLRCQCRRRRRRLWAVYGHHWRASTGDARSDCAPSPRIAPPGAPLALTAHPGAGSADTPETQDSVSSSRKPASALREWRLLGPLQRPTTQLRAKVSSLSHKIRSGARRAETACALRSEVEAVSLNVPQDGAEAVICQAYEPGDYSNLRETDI
Experiment: In-vitro functional study, agonist-induced contractile response on isolated rat aorta
Type: biochemical
Description: Aorta, prostate and spleen tissues were isolated from urethane anaesthetized (1.5 gm/kg) male wistar rats. Isolated tissues were mounted in organ bath containing Krebs Henseleit buffer of following compostion (mM): NaCl 118; KCl 4.7; CaCl2 2.5; MgSO4.7H2O 1.2; NaHCO3 25; KH2PO4 1.2; glucose 11.5. Buffer was maintained at 37° C. and aerated with a mixture of 95% O2 and 5% CO2. A resting tension of 2 g (aorta) or 1 g (spleen and prostate) was applied to tissues. Contractile response was monitored using a force displacement transducer and recorded on chart recorders. Tissues were allowed to equilibrate for 2 hours. At the end of equilibration period, concentration response curves to norepinephrine (aorta) and phenylepinephrine (spleen and prostate) were obtained in absence and presence of tested compound (at concentrations of […]). Antagonist affinities were calculated and expressed as pKB vales in Table II.
To compare the differences in pKB at the α1-arenrenoceptor subtypes one-way ANOVA followed by Dunett ‘t’ test was applied. A p<0.05 was considered statistically significant.

`CCOc1ccccc1OCCN[C@H](C)Cc1ccc(O)c(S(N)(=O)=O)c1` [Formula I, R (−)-5-[2-[[2-(2-ethoxyphenoxy)ethyl]amino]propyl]-2-hydroxybenzenesulfonamide] showed a Kb of 5.89 pM.
